Reference: patent publication US7468274B2, “Single cell analysis of HIV replication capacity and drug resistance” (priority 2004, dated 2008)
Where “and” joins values, the source holds several entries; their conditions need not be identical. Equal entries are not always repeated. Entries after “also recorded” stand apart in the source; their conditions may differ. Where two headings read alike, the source gives them in different places.

Legend:
[1] = test system: pseudotyped reporter viruses carrying the NL4-3 gag-pol sequence (wild type); format: cell-based, HIV-1
[2] = in vivo; cited from earlier work
[3] = test system: Pt2019-1-1 patient-derived drug-resistant HIV-1 isolate; format: cell-based
[4] = test system: Pt2019-1-2 patient-derived drug-resistant HIV-1 isolate; format: cell-based

Cc1cn([C@H]2C=C[C@@H](CO)O2)c(=O)[nH]c1=O [d4T, stavudine]
% GFP-positive target cells [1]: 6.83% and 7.04% and 5.74% | Cmax relative to IC50 measured in this system [1]: close to or below; also recorded: below | Drug resistance index (replication with drug / without drug) [1]: 0.325 | Mean % GFP-positive target cells [1]: 6.54%

O=c1[nH]cnc2c1ncn2[C@H]1CC[C@@H](CO)O1 [ddI, didanosine]
Cmax relative to IC50 measured in this system [1]: close to or below | Cmax relative to IC90 measured in this system [1]: below | Cmax [2]: 6.78 µM

O=C1Nc2ccc(Cl)cc2[C@@](C#CC2CC2)(C(F)(F)F)O1 [EFV, efavirenz]
Cmin/IC50 ratio (published Cmin to IC50 measured in this system) [1]: > 1,000 fold

Nc1ccn([C@@H]2CS[C@H](CO)O2)c(=O)n1 [3TC, lamivudine]
Drug Resistance Index [3]: 1 | Replication Index ([3]; Pt2019-1-1, concn 12.5 (head prints p.M)): 0.42 | Drug Resistance Index ([3]; Pt2019-1-1, concn 12.5 (head prints p.M; text 12.5 μM)): 0.8 | Replication Index ([4]; concn 12.5 (head prints p.M)): 0.00053 | Drug Resistance Index ([4]; concn 12.5 (head prints p.M; text 12.5 μM)): 0.001 | Drug Resistance Index [1]: 0.002 | Replication Index (replication capacity index x drug resistance index) [1]: 0.002

Cc1cn([C@H]2C[C@H](N=[N+]=[N-])[C@@H](CO)O2)c(=O)[nH]c1=O [AZT, zidovudine]
% GFP-positive target cells [1]: 7.61% and 6.70% and 7.59% and 6.71% | Drug resistance index (replication with drug / without drug) [1]: 0.356 | Mean % GFP-positive target cells [1]: 7.15%
